Reference: PMC4765732 (Journal of medicinal chemistry, 2015)

Legend:
HIV-1DRV^RP51 = type: cell-based; conditions: against HIV-1DRV^RP51
HIV-1LAI = experiment: Antiviral assay in MT-2 human T-lymphocytes exposed to HIV-1LAI; type: cell-based

Row | SMILES | improvement in EC50 values over darunavir (HIV-1DRV^RP51) [fold] | loss in antiviral activity (HIV-1LAI; versus Boc-derivative 25c) [fold] | improvement in antiviral activity over the methyl and ethyl derivatives (HIV-1LAI; antiviral IC50 versus 25f and 25i)
1 | CCN[C@H]1CO[C@@H]2OC[C@H](OC(=O)N[C@@H](Cc3ccccc3)[C@H](O)CN(CC(C)C)S(=O)(=O)c3ccc(OC)cc3)[C@@H]21 [Inhibitor 25i] | 10 | – | –
2 | COc1ccc(S(=O)(=O)N(CC(C)C)C[C@@H](O)[C@H](Cc2ccccc2)NC(=O)O[C@H]2CO[C@H]3OC[C@H](N(C)C(=O)OC(C)(C)C)[C@H]32)cc1 [Inhibitor 25e, (3R,3aS,4R,6aR)-4-((2S,3R)-3-Hydroxy-4-(N-isobutyl-4-methoxyphenylsulfonamido)-1-phenylbutan-2-ylcarbamoyloxy)hexahydrofuro[2,3-b]furan-3-yl methyl t-butyl carbamate] | – | ~10 | –
3 | COc1ccc(S(=O)(=O)N(CC(C)C)C[C@@H](O)[C@H](Cc2ccccc2)NC(=O)O[C@H]2CO[C@H]3OC[C@H](NC(C)C)[C@H]32)cc1 [Inhibitor 25j, (3R,3aS,4R,6aR)-4-(Isopropylamino)hexahydrofuro[2,3-b]furan-3-yl ((2S,3R)-3-hydroxy-4-((N-isobutyl-4-methoxyphenyl)sulfonamido)-1-phenylbutan-2-yl)carbamate] | 10 | – | over 60 fold
